Patent US9980943B2, “Methods of treating muscular dystrophy” (BOARD OF REGENTS OF THE NEVADA SYSTEM OF HIGHER EDUCATION, …, priority 2013, dated 2018)

What was measured:
Format in all cases: cell-based, mouse
[1] = tested on: β-galactosidase in CMV-LacZ C2C12 myoblasts; experiment: CMV-LacZ secondary screen in C2C12 myoblasts (β-Gal stabilizing assay); settings: for CMV-LACZ in Myoblasts, value relative to DMSO: SU9516 analogs, C2C12 CMV-LacZ, N=2; for CMV-LACZ in Myoblasts (β-galactosidase activity relative to DMSO): CMV-LacZ C2C12 myoblasts
Procedure, shortened: (§1)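 Dose-response runs at 0.5–40 μM (0.5, 1, 5, 10, 20, 40 μM; N=2 per point) used a clonal C2C12 line carrying CMV-LacZ. Cells were assayed as myoblasts or as differentiated myotubes, and β-galactosidase levels were read with the FDG fluorogenic substrate.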

[2] = tested on: α7 integrin (LacZ reporter in α7βgal+/− myoblasts); experiment: Myoblast α7+/LacZ integrin FDG assay (Burkin assay in myoblasts, 96-well); settings: 96-well; for Burkin Assay in Myoblasts, value relative to DMSO: SU9516 analogs, N=3-6; for Burkin Assay in Myoblasts, signal relative to DMSO: α7+/LacZ myoblasts
[3] = tested on: β-galactosidase in CMV-LacZ C2C12 myotubes; experiment: CMV-LacZ secondary screen in C2C12 myotubes (β-Gal stabilizing assay); settings: for CMV-LACZ in Myotubes, value relative to DMSO: SU9516 analogs, C2C12 CMV-LacZ, N=2; for CMV-LACZ in Myotubes, signal relative to DMSO: C2C12 CMV-LacZ myotubes, fold relative to DMSO
Procedure, shortened: as §1

[4] = tested on: α7 integrin (LacZ reporter in α7+/LacZ myotubes); experiment: Myotube α7 integrin FDG assay (Burkin assay in myotubes, 96-well); settings: for Burkin Assay in Myotubes, value relative to DMSO: SU9516 analogs, 96-well, N=3-6

Cc1ccccc1/C=C1\C(=O)Nc2ccc(F)cc21 [MLS001197838-01]
CMV-LACZ in Myoblasts, value relative to DMSO ([1]; 0.5 uM): 0.7904
CMV-LACZ in Myoblasts, value relative to DMSO ([1]; 1 uM): 0.9954
CMV-LACZ in Myoblasts, value relative to DMSO ([1]; 5 uM): 1.0010
CMV-LACZ in Myoblasts, value relative to DMSO ([1]; 10 uM): 1.1118
CMV-LACZ in Myoblasts, value relative to DMSO ([1]; 20 uM): 1.1615
CMV-LACZ in Myoblasts, value relative to DMSO ([1]; 40 uM): 0.9437
Burkin Assay in Myoblasts, value relative to DMSO ([2]; 0.5 uM): 1.256
Burkin Assay in Myoblasts, value relative to DMSO ([2]; 1 uM): 1.198
Burkin Assay in Myoblasts, value relative to DMSO ([2]; 5 uM): 1.053
Burkin Assay in Myoblasts, value relative to DMSO ([2]; 10 uM): 1.048
Burkin Assay in Myoblasts, value relative to DMSO ([2]; 20 uM): 0.8911
Burkin Assay in Myoblasts, value relative to DMSO ([2]; 40 uM): 0.8648
CMV-LACZ in Myotubes, value relative to DMSO ([3]; 0.5 uM): 1.0305
CMV-LACZ in Myotubes, value relative to DMSO ([3]; 1 uM): 1.0038
CMV-LACZ in Myotubes, value relative to DMSO ([3]; 5 uM): 0.9701
CMV-LACZ in Myotubes, value relative to DMSO ([3]; 10 uM): 1.1637
CMV-LACZ in Myotubes, value relative to DMSO ([3]; 20 uM): 0.8547
CMV-LACZ in Myotubes, value relative to DMSO ([3]; 40 uM): 1.0063
Burkin Assay in Myotubes, value relative to DMSO ([4]; 0.5 uM): 1.009
Burkin Assay in Myotubes, value relative to DMSO ([4]; 1 uM): 0.981
Burkin Assay in Myotubes, value relative to DMSO ([4]; 5 uM): 1.004
Burkin Assay in Myotubes, value relative to DMSO ([4]; 10 uM): 1.091
Burkin Assay in Myotubes, value relative to DMSO ([4]; 20 uM): 0.8699
Burkin Assay in Myotubes, value relative to DMSO ([4]; 40 uM): 0.9981

COc1ccc2c(c1)/C(=C\c1cccc(/C=C3/C(=O)Nc4ccc(OC)cc43)n1)C(=O)N2 [MLS002702497-01]
CMV-LACZ in Myoblasts, value relative to DMSO ([1]; 0.5 uM): 0.8643
CMV-LACZ in Myoblasts, value relative to DMSO ([1]; 1 uM): 1.0213
CMV-LACZ in Myoblasts, value relative to DMSO ([1]; 5 uM): 2.6344
CMV-LACZ in Myoblasts, value relative to DMSO ([1]; 10 uM): 3.6076
CMV-LACZ in Myoblasts, value relative to DMSO ([1]; 20 uM): 0.2593
CMV-LACZ in Myoblasts, value relative to DMSO ([1]; 40 uM): 0.2779
Burkin Assay in Myoblasts, value relative to DMSO ([2]; 0.5 uM): 0.7804
Burkin Assay in Myoblasts, value relative to DMSO ([2]; 1 uM): 0.5545
Burkin Assay in Myoblasts, value relative to DMSO ([2]; 5 uM): 0.175
Burkin Assay in Myoblasts, value relative to DMSO ([2]; 10 uM): 0.1888
Burkin Assay in Myoblasts, value relative to DMSO ([2]; 20 uM): 0.05588
Burkin Assay in Myoblasts, value relative to DMSO ([2]; 40 uM): 0.04886
CMV-LACZ in Myotubes, value relative to DMSO ([3]; 0.5 uM): 1.1181
CMV-LACZ in Myotubes, value relative to DMSO ([3]; 1 uM): 2.2829
CMV-LACZ in Myotubes, value relative to DMSO ([3]; 5 uM): 7.0726
CMV-LACZ in Myotubes, value relative to DMSO ([3]; 10 uM): 6.3598
CMV-LACZ in Myotubes, value relative to DMSO ([3]; 20 uM): 0.6520
CMV-LACZ in Myotubes, value relative to DMSO ([3]; 40 uM): 0.6550
Burkin Assay in Myotubes, value relative to DMSO ([4]; 0.5 uM): 0.8414
Burkin Assay in Myotubes, value relative to DMSO ([4]; 1 uM): 0.749
Burkin Assay in Myotubes, value relative to DMSO ([4]; 5 uM): 0.7692
Burkin Assay in Myotubes, value relative to DMSO ([4]; 10 uM): 0.7814
Burkin Assay in Myotubes, value relative to DMSO ([4]; 20 uM): 0.4567
Burkin Assay in Myotubes, value relative to DMSO ([4]; 40 uM): 0.3839

c1ccc(-c2cn3c4c(sc3n2)CCCC4)cc1 [MLS002636056-01]
CMV-LACZ in Myoblasts (β-galactosidase activity relative to DMSO) ([1]; 0.5 uM): 0.9392
CMV-LACZ in Myoblasts (β-galactosidase activity relative to DMSO) ([1]; 1 uM): 0.9021
CMV-LACZ in Myoblasts (β-galactosidase activity relative to DMSO) ([1]; 5 uM): 1.0394
CMV-LACZ in Myoblasts (β-galactosidase activity relative to DMSO) ([1]; 10 uM): 1.2571
CMV-LACZ in Myoblasts (β-galactosidase activity relative to DMSO) ([1]; 20 uM): 1.1173
CMV-LACZ in Myoblasts (β-galactosidase activity relative to DMSO) ([1]; 40 uM): 0.8270
Burkin Assay in Myoblasts, signal relative to DMSO ([2]; 0.5 uM): 1.157
Burkin Assay in Myoblasts, signal relative to DMSO ([2]; 1 uM): 1.066
Burkin Assay in Myoblasts, signal relative to DMSO ([2]; 5 uM): 1.037
Burkin Assay in Myoblasts, signal relative to DMSO ([2]; 10 uM): 1.224
Burkin Assay in Myoblasts, signal relative to DMSO ([2]; 20 uM): 0.9377
Burkin Assay in Myoblasts, signal relative to DMSO ([2]; 40 uM): 0.8203
CMV-LACZ in Myotubes, signal relative to DMSO ([3]; 0.5 uM): 0.9855
CMV-LACZ in Myotubes, signal relative to DMSO ([3]; 1 uM): 1.2636
CMV-LACZ in Myotubes, signal relative to DMSO ([3]; 5 uM): 1.0269
CMV-LACZ in Myotubes, signal relative to DMSO ([3]; 10 uM): 1.1613
CMV-LACZ in Myotubes, signal relative to DMSO ([3]; 20 uM): 1.4090
CMV-LACZ in Myotubes, signal relative to DMSO ([3]; 40 uM): 1.1160
Burkin Assay in Myotubes, α7 integrin LacZ reporter signal relative to DMSO ([4]; 0.5 uM): 0.9619
Burkin Assay in Myotubes, α7 integrin LacZ reporter signal relative to DMSO ([4]; 1 uM): 1.089
Burkin Assay in Myotubes, α7 integrin LacZ reporter signal relative to DMSO ([4]; 5 uM): 0.9203
Burkin Assay in Myotubes, α7 integrin LacZ reporter signal relative to DMSO ([4]; 10 uM): 1.027
Burkin Assay in Myotubes, α7 integrin LacZ reporter signal relative to DMSO ([4]; 20 uM): 0.9045
Burkin Assay in Myotubes, α7 integrin LacZ reporter signal relative to DMSO ([4]; 40 uM): 1.167
